Results taken from US20260285857A1, “BICYCLIC AND HETEROCYCLIC AMIDE COMPOUNDS” (priority 2024, published 2026).

System: immunoglobulin light chain protein WIL-FL T46L
Experiment: Differential scanning fluorimetry (thermal shift) assay
Format: binding
Details: temperature shift [Tm]compound-[Tm]vehicle, recombinant WIL-FL T46L

Structure (SMILES): C[C@]1(c2ccccc2)CCN(c2cc(O)c3nc(C(=O)N4CC[C@@]5(CCN(c6cccc(C(=O)O)n6)C5)C4)nn3c2)C1 [Compound 293]
- DSF (Table A): **** (>1.5-2.5° C.=****)

Structure (SMILES): Cc1cc(N2CCC(C)(c3ccc(F)cc3F)C2)cn2nc(C(=O)N3C[C@@H]4CN(c5cccc(C(=O)O)n5)C[C@@H]4C3)nc12 (stereo partly drawn) [Compound 388]
- DSF (Table A): **** (>1.5-2.5° C.=****)

Structure (SMILES): Cc1cc(N2CC[C@@](C)(n3ccc(C(F)(F)F)n3)C2)cn2nc(C34CC(CO3)C4c3nc(N)n[nH]3)nc12 (stereo partly drawn) [Compound 496, 5-(1-(8-methyl-6-((R)-3-methyl-3-(3-(trifluoromethyl)-1H-pyrazol-1-yl)pyrrolidin-1-yl)-[1,2,4]triazolo[1,5-a]pyridin-2-yl)-2-oxabicyclo[2.1.1]hexan-5-yl)-1H-1,2,4-triazol-3-amine]
- DSF (Table B): **** (>1.5-2.5° C.=****)

Structure (SMILES): Cc1cc(N2CC[C@](C)(c3ccccc3)C2)cn2nc(C34CC(O)(CO3)C4)nc12 [Compound 381]
- DSF (Table A): ***** (>2.5° C.=*****)

Structure (SMILES): Cc1cc(N2CC[C@](C)(c3ccccc3)C2)cn2nc(C(=O)N3CCc4c(nnn4-c4ccnc(C(=O)O)c4)C3)nc12 [Compound 639]
- DSF (Table B): ***** (>2.5° C.=*****)

Structure (SMILES): Cc1cc(N2CC3(c4ccccc4)CC2C3)cn2nc(C(=O)N3CC4CN(c5cccc(C(=O)O)n5)CC4C3)nc12 (stereo not drawn) [Compound 431]
- DSF (Table A): * (0-0.5° C.=*)

Structure (SMILES): Cc1cc(N2CC[C@](C)(c3ccccc3)C2)cn2nc(C(=O)N3CC(O)C3)nc12 [Compound 128]
- DSF (Table A): ***** (>2.5° C.=*****)

Structure (SMILES): Cc1nc(CNC(=O)C23COC(c4nc5c(C)cc(N6CC[C@](C)(c7ccccc7)C6)cn5n4)(C2)C3)n[nH]1 [Compound 448]
- DSF (Table B): ***** (>2.5° C.=*****)

Structure (SMILES): Cc1cc(N2CC[C@](C)(c3ccccc3)C2)cn2nc(C34CC(CO3)C4NCC3(N)COC3)nc12 (stereo partly drawn) [Compound 510, N-[(3-aminooxetan-3-yl)methyl]-1-[8-methyl-6-[(3R)-3-methyl-3-phenyl-pyrrolidin-1-yl]-[1,2,4]triazolo[1,5-a]pyridin-2-yl]-2-oxabicyclo[2.1.1]hexan-5-amine]
- DSF (Table B): ***** (>2.5° C.=*****)

Structure (SMILES): Cc1cc(N2CC[C@](C)(c3ccccc3)C2)cn2nc(C34CC(Cn5nncc5C)(CO3)C4)nc12 [Compound 451]
- DSF (Table B): ***** (>2.5° C.=*****)

Structure (SMILES): CCS(=O)(=O)NCC12COC(c3nc4c(C)cc(N5CC[C@](C)(c6ccccc6)C5)cn4n3)(C1)C2c1n[nH]c(C)n1 (stereo partly drawn) [Compound 587]
- DSF (Table B): ***** (>2.5° C.=*****)

Structure (SMILES): COC(C)(CS(=O)(=O)Nc1n[nH]c(C2C3COC2(c2nc4c(C)cc(N5CC[C@](C)(c6ccccc6)C5)cn4n2)C3)n1)C(=O)O (stereo partly drawn) [Compound 567]
- DSF (Table B): **** (>1.5-2.5° C.=****)

Structure (SMILES): Cc1cc(N2CC[C@](C)(c3ccccc3)C2)cn2nc(C(=O)NC3CNCC3O)nc12 (stereo partly drawn) [Compound 117]
- DSF (Table A): ***** (>2.5° C.=*****)

Structure (SMILES): Cc1cc(N2CC[C@](c3ccccc3)(C(F)F)C2)cn2nc(C(=O)NCC(C)(C)O)nc12 [Compound 28, 6-[(3R)-3-(difluoromethyl)-3-phenyl-pyrrolidin-1-yl]-N-(2-hydroxy-2-methyl-propyl)-8-methyl-[1,2,4]triazolo[1,5-a]pyridine-2-carboxamide]
- DSF (Table A): **** (>1.5-2.5° C.=****)

Structure (SMILES): Cc1cccc(C2CCC23CN(c2cc(C)c4nc(C(=O)N5CC[C@@]6(CCN(c7cccc(C(=O)O)n7)C6)C5)nn4c2)C3)c1 (stereo partly drawn) [Compound 17, 6-((5R)-7-(8-methyl-6-(5-(m-tolyl)-2-azaspiro[3.3]heptan-2-yl)-[1,2,4]triazolo[1,5-a]pyridine-2-carbonyl)-2,7-diazaspiro[4.4]nonan-2-yl)picolinic acid]
- DSF (Table A): ***** (>2.5° C.=*****)

Structure (SMILES): Cc1cc(N2CC[C@](C)(c3ccccc3Cl)C2)cn2nc(C34CC(CO3)C4N3CC4(CC4)NC3=O)nc12 (stereo partly drawn) [Compound 513, 6-[1-[6-[(3R)-3-(2-chlorophenyl)-3-methyl-pyrrolidin-1-yl]-8-methyl-[1,2,4]triazolo[1,5-a]pyridin-2-yl]-2-oxabicyclo[2.1.1]hexan-5-yl]-4,6-diazaspiro[2.4]heptan-5-one]
- DSF (Table B): ***** (>2.5° C.=*****)

Structure (SMILES): C[C@]1(c2ccccc2)CCN(c2cc(CO)c3nc(C45CC(N)(CO4)C5)nn3c2)C1 [Compound 59]
- DSF (Table A): ***** (>2.5° C.=*****)

Structure (SMILES): Cc1cc(N2CC[C@](C)(c3ccccc3)C2)cn2nc(C34CC(CO3)C4c3nc(C(N)=O)n[nH]3)nc12 (stereo partly drawn) [Compound 6, 5-[1-[8-methyl-6-[(3R)-3-methyl-3-phenyl-pyrrolidin-1-yl]-[1,2,4]triazolo[1,5-a]pyridine-2-yl]-2-oxabicyclo[2.1.1]hexan-5-yl]-1H-1,2,4-triazole-3-carboxamide]
- DSF (Table A): ***** (>2.5° C.=*****)

Structure (SMILES): Cc1cc(N2CC[C@](C)(c3ccccc3)C2)cn2nc(C(=O)NC3CNCC3(F)F)nc12 (stereo partly drawn) [Compound 150]
- DSF (Table A): ***** (>2.5° C.=*****)

Structure (SMILES): Cc1cc(N2CC[C@](C)(c3ccccc3)C2)cn2nc(C34CC(CO3)C4CNc3cccc(C(=O)O)n3)nc12 (stereo partly drawn) [Compound 8, 6-[[1-[8-methyl-6-[(3R)-3-methyl-3-phenyl-pyrrolidin-1-yl]-[1,2,4]triazolo[1,5-a]pyridin-2-yl]-2-oxabicyclo[2.1.1]hexan-5-yl]methylamino]pyridine-2-carboxylic acid]
- DSF (Table A): ***** (>2.5° C.=*****)

Structure (SMILES): Cc1cc(N2CC[C@](C)(c3ccccc3)C2)cn2nc(C(=O)N3CC[C@@]4(CCN(C(=O)[C@@H]5CC[C@H](C(=O)O)C5)C4)C3)nc12 [Compound 708, (1S,3R)-3-[(5R)-7-[8-methyl-6-[(3R)-3-methyl-3-phenyl-pyrrolidin-1-yl]-[1,2,4]triazolo[1,5-a]pyridine-2-carbonyl]-2,7-diazaspiro[4.4]nonane-2-carbonyl]cyclopentanecarboxylic acid]
- DSF (Table B): ***** (>2.5° C.=*****)

Structure (SMILES): Cc1cc(N2CC[C@](C)(c3ccccc3)C2)cn2nc(C34CC(CO3)C4c3cn(C)nn3)nc12 (stereo partly drawn) [Compound 11, 8-methyl-6-[(3R)-3-methyl-3-phenyl-pyrrolidin-1-yl]-2-[5-(1-methyltriazol-4-yl)-2-oxabicyclo[2.1.1]hexan-1-yl]-[1,2,4]triazolo[1,5-a]pyridine]
- DSF (Table A): ***** (>2.5° C.=*****)

Structure (SMILES): Cc1cc(N2CC[C@](C)(c3ccccc3)C2)cn2nc(C(=O)NC3CC4(CCC4N4CCC(C(=O)O)CC4)C3)nc12 (stereo partly drawn) [Compound 374]
- DSF (Table A): ***** (>2.5° C.=*****)

Structure (SMILES): Cc1cc(N2CC[C@](C)(c3ccccc3)C2)cn2nc(C(=O)NC3CC4(C3)CN(c3ccnc(C(=O)O)c3)C4)nc12 [Compound 691, (R)-4-(6-(8-methyl-6-(3-methyl-3-phenylpyrrolidin-1-yl)-[1,2,4]triazolo[1,5-a]pyridine-2-carboxamido)-2-azaspiro[3.3]heptan-2-yl)picolinic acid]
- DSF (Table B): ***** (>2.5° C.=*****)

Structure (SMILES): C[C@]1(c2ccccc2)CCN(c2cc(CO)c3nc(C(=O)NC4CC5(CCC5N5CC6C(C5)C6C(=O)O)C4)nn3c2)C1 (stereo partly drawn) [Compound 346]
- DSF (Table A): ***** (>2.5° C.=*****)

Structure (SMILES): Cc1cc(N2CC[C@](C)(c3ccccc3)C2)cn2nc(C(=O)NC34CCC(CO)(C3)C4)nc12 [Compound 204]
- DSF (Table A): ***** (>2.5° C.=*****)

Structure (SMILES): Cc1cc(N2CC[C@](C)(c3ccccc3)C2)cn2nc(C(=O)N3CC[C@@]4(CCN(C5CCCC(C(=O)O)C5)C4)C3)nc12 (stereo partly drawn) [Compound 720]
- DSF (Table B): ***** (>2.5° C.=*****)

Structure (SMILES): Cc1cc(N2CC[C@](C)(c3ccccc3)C2)cn2nc(C(=O)NC34CNCC3C4)nc12 (stereo partly drawn) [Compound 185]
- DSF (Table A): ***** (>2.5° C.=*****)

Structure (SMILES): Cc1cc(N2CC[C@](C)(c3ccccc3)C2)cn2nc(C(=O)N3CC4CN(c5cccc(C(=O)O)n5)CC4(C#N)C3)nc12 (stereo partly drawn) [Compound 636, 6-[3a-cyano-5-[8-methyl-6-[(3R)-3-methyl-3-phenyl-pyrrolidin-1-yl]-[1,2,4]triazolo[1,5-a]pyridine-2-carbonyl]-3,4,6,6a-tetrahydro-1H-pyrrolo[3,4-c]pyrrol-2-yl]pyridine-2-carboxylic acid]
- DSF (Table B): ***** (>2.5° C.=*****)

Structure (SMILES): Cc1cc(N2CC[C@](C)(c3ccccc3)C2)cc2oc(C(=O)N3CC4CN(c5cccc(C(=O)O)n5)CC4C3)nc12 (stereo partly drawn) [Compound 40, 6-(5-(4-methyl-6-((R)-3-methyl-3-phenylpyrrolidin-1-yl)benzo[d]oxazole-2-carbonyl)hexahydropyrrolo[3,4-c]pyrrol-2(1H)-yl)picolinic acid]
- DSF (Table A): ***** (>2.5° C.=*****)

Structure (SMILES): Cc1cc(N2CC[C@](C)(c3ccccc3)C2)cn2nc(C(=O)NC3CN(c4cccc(C(=O)O)n4)CCC3(C)C)nc12 (stereo partly drawn) [Compound 274]
- DSF (Table A): ***** (>2.5° C.=*****)

Structure (SMILES): Cc1nc(CC2C3COC2(c2nc4c(C)cc(N5CC[C@](C)(c6ccccc6)C5)cn4n2)C3)n[nH]1 (stereo partly drawn) [Compound 9, 8-methyl-6-[(3R)-3-methyl-3-phenyl-pyrrolidin-1-yl]-2-[5-[(5-methyl-1H-1,2,4-triazol-3-yl)methyl]-2-oxabicyclo[2.1.1]hexan-1-yl]-[1,2,4]triazolo[1,5-a]pyridine]
- DSF (Table A): ***** (>2.5° C.=*****)

Structure (SMILES): Cc1cc(N2CC3(CCC3c3cccc(F)c3)C2)cn2nc(C(=O)N3C[C@@H]4CN(c5cccc(C(=O)O)n5)C[C@@H]4C3)nc12 (stereo partly drawn) [Compound 739]
- DSF (Table B): ***** (>2.5° C.=*****)

Structure (SMILES): CNC(=O)c1nc2c(CN)cc(N3CC[C@](C)(c4ccccc4)C3)cn2n1 [Compound 335]
- DSF (Table A): ***** (>2.5° C.=*****)

Structure (SMILES): Cc1cc(N2CC[C@](C)(c3ccccc3)C2)cn2nc(C(=O)N3CC[C@@]4(CCN(c5ccc(F)c(C(=O)O)n5)C4)C3)nc12 [Compound 711]
- DSF (Table B): ***** (>2.5° C.=*****)

Structure (SMILES): Cc1cc(N2CC[C@](C)(c3ccccc3)C2)cn2nc(C(=O)NC34COC(C(N)=O)(C3)C4)nc12 [Compound 212]
- DSF (Table A): ***** (>2.5° C.=*****)

Structure (SMILES): Cc1cc(N2CC[C@](C)(c3ccccc3)C2)cn2nc(C(=O)N3CCC4(COC4)C3)nc12 [Compound 113]
- DSF (Table A): ***** (>2.5° C.=*****)

Structure (SMILES): Cc1cc(N2CC[C@](C)(c3ccccc3)C2)cn2nc(C34CC(C(=O)N[C@@H]5COC[C@H]5O)(CO3)C4)nc12 [Compound 441]
- DSF (Table B): ***** (>2.5° C.=*****)

Structure (SMILES): Cc1cc(N2CC[C@](C)(c3ccccc3)C2)cn2nc(C34CCC(NC(=O)CC(C)(C)O)(C3)O4)nc12 (stereo partly drawn) [Compound 53]
- DSF (Table A): ***** (>2.5° C.=*****)
